The text below walks through data of patent US20260207585A1, “METHODS AND COMPOSITIONS FOR THE TREATMENT OF PARKINSON'S DISEASE, HUNTINGTON'S DISEASE, AMYOTROPHIC LATERAL SCLEROSIS, AND LEARNING DISORDERS” (Cedars-Sinai Medical Center, priority 2022, published 2026).

In one assay the target is T1, NSD2 (T1150A) (Homo sapiens, UniProt O96028, T1150A).
T1 sequence (O96028 1-1365 T1150A): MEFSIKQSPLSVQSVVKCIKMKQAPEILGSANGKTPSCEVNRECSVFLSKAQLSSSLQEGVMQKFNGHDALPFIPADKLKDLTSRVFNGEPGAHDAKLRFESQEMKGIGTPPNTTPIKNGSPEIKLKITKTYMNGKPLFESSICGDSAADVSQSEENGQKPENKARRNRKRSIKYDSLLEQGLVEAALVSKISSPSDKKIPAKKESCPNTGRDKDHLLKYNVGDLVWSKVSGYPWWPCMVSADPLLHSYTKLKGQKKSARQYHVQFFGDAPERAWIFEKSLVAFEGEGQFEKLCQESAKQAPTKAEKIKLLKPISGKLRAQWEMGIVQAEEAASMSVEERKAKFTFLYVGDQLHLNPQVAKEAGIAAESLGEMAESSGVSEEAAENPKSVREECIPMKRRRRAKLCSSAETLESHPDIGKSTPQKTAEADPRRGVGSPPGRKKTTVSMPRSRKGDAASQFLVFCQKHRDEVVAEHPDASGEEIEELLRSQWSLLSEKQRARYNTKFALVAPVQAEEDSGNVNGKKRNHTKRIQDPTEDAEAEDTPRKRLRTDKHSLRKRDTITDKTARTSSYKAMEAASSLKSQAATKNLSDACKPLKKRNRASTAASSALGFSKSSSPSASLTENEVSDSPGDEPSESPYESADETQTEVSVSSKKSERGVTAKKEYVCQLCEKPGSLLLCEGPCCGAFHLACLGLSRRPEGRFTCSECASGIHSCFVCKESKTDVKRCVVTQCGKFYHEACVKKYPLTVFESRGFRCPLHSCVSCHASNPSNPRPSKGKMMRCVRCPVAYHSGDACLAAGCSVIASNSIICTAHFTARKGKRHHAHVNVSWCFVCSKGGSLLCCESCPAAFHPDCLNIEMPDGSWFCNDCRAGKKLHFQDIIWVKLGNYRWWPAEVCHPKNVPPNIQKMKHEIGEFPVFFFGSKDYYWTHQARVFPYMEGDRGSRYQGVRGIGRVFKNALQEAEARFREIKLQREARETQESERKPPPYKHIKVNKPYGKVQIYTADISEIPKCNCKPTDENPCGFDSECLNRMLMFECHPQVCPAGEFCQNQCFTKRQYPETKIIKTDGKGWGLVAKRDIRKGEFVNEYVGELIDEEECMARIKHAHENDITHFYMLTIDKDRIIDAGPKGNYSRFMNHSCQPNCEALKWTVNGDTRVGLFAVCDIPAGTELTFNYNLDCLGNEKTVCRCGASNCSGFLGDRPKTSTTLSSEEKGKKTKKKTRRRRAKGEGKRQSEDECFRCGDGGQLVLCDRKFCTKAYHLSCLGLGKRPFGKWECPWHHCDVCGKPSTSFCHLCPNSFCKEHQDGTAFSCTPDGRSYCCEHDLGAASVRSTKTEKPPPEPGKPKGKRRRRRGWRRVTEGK
Description: Methyltransferase inhibition panel: NSD2 (T1150A). In kind it is biochemical. As to the method:
(§1) The ability of ETP69 to inhibit methyltransferases was tested.

A further assay addresses DNMT3a (Homo sapiens, UniProt Q9Y6K1). Put plainly: Methyltransferase inhibition panel: DNMT3a. In kind it is biochemical. As to conditions: NT1721 20 μM; substrate Lambda DNA 0.0075 mg/mL. As to the method: as §1
In the next assay the target is T2, NSD2 (Homo sapiens, UniProt O96028).
T2 sequence (O96028 1-1365): T1 sequence (O96028 1-1365 T1150A) with A1150T
Put plainly: Methyltransferase inhibition panel: NSD2. In kind it is biochemical. As to the method:
as §1

Another assay relates to GFAP. Put plainly: GFAP staining of brain sections. As to conditions: AD+ mice; 4 and 15 days. In kind it is in vivo. The text has this:
ETP69 administration reduced AD-related brain pathology (FIGS. 9A-9C). Brain sections were stained for H3K9me3, 6E10 and GFAP.

Setting [1] is: read-out: Enzyme % Activity (relative to DMSO controls) Data 1.
Setting [2] is: read-out: Enzyme % Activity (relative to DMSO controls) Data 2.

SMILES strings stand for the structures. Positions count from the first letter of the chain named. Read-outs that look alike come from different tables or passages of the source.

Sequence of DNMT3a (Q9Y6K1 whole entry, looked up): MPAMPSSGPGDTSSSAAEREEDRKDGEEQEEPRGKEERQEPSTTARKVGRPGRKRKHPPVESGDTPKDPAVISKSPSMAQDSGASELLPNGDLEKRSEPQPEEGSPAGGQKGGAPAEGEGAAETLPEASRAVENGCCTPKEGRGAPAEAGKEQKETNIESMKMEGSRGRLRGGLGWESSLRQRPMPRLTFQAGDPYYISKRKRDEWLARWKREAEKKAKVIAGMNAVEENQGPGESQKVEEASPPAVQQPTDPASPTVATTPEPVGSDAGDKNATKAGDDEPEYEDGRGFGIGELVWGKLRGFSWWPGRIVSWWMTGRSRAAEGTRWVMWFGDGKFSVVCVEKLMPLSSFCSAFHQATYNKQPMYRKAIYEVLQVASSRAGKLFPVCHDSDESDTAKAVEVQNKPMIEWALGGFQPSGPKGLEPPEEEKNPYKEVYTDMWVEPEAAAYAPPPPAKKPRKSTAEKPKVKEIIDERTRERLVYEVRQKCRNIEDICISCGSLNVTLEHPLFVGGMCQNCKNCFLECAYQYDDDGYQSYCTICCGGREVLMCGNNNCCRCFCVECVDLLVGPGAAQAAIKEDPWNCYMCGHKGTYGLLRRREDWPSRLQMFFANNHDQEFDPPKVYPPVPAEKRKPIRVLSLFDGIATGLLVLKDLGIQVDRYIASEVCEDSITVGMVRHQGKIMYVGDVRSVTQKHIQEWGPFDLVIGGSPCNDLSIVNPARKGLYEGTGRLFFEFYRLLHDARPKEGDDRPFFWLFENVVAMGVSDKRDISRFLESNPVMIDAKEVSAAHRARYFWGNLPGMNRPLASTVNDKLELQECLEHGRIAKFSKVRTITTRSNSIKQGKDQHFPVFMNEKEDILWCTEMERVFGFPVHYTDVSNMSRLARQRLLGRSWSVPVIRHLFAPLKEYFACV

Consider `CN1C(=O)[C@@]23C[C@](C)(C#N)[C@H](c4ccc5c(c4)OCO5)N2C(=O)[C@]1(C)SS3` (racemic) [ETP69, Rac-(3S,6S,7S,8aS)-6-(benzo[d][1,3]dioxol-5-yl)-2,3,7-trimethyl-1,4-dioxohexahydro-6H-3,8a-epidithiopyrrolo[1,2-a]pyrazine-7-carbonitrile], for which the remaining activity at 20 µM on NSD2 (T1150A) (setting [1]) was 23.9%; on NSD2 (T1150A) (setting [2]), 25.5%; at NSD2 (setting [1]), 20%; on NSD2 (setting [2]), 19.9%. Further, the “inhibition relative to DMSO controls” value at NSD2 (T1150A) (summary of Table 1) and on NSD2 (summary of Table 1) was “at least 7500” each time. Besides, the “Enzyme % Activity (relative to DMSO controls) Data 1” value at DNMT3a came out at 76.81%. Also, the “Enzyme % Activity (relative to DMSO controls) Data 2” value at DNMT3a stood at 78.12%. In the assay on GFAP, the GFAP result is listed as “significant decrease”.
